Test results: patent publication US7893055B2, “HIV integrase inhibitors” (priority 2006, dated 2011)

biological target: T1, HIV-integrase (Human immunodeficiency virus type 1 group M subtype B, UniProt P12497); assay: HIV-Integrase Inhibition Activity (SPA strand transfer assay); assay type: biochemical; conditions: recombinant integrase, SPA beads, P33 labeled target DNA; read-out: Activity (IC50 class, HIV-integrase inhibition)
T1 construct: Recombinant integrase (0.26 ng) was incubated with the beads
Description: HIV-Integrase InhibitionActivity. To evaluate in-vitro activity against HIV-integrase, 5 pmole of biotin labeled substrate DNA was bound to 100 μg of Streptavidin coated PVT SPA beads (Amersham Pharmacia Biotech). Recombinant integrase (0.26 ng) was incubated with the beads for 90 min at 37° C. Unbound enzyme was removed by washing the complex followed by addition of inhibitors and 0.1 fmol of P33 labeled target DNA. The reaction was stopped by adding EDTA to a final concentration of 10 mM. Samples were counted in TopCountNXT (Packard) and the CPM was used as a measure of integration. The reaction condition was as described in A. Engelman and R. Craigie, J. Virol. 69, 5908-5911 (1995). The sequences of substrate and target DNA were described in Nucleic Acid Research 22, 1121-1122 (1994). Activity equal to A refers to a compound having IC50=0.002 to 0.10 μM while B and C denote compounds having IC50=0.1 to 1.0 μM and IC50≧1.0 μM respectively.

| Substance | IC50 [nM] |
| --- | --- |
| Pyrimido[2,1-c][1,4]oxazine-2- carboxamide, 4,6,7,9-tetrahydro-3- hydroxy-9,9-dimethyl-4-oxo-N- [(2,3,6,7-tetrahydro-1,3,7- trimethyl-2,6-dioxo-1H-purin-8- yl)methyl]- [Example 60] | ≥ 1000 |
| Pyrimido[2,1-c][1,4]oxazine-2- carboxamide, 4,6,7,9-tetrahydro-3- hydroxy-9,9-dimethyl-4-oxo-N-[2- (2-thienyl)ethyl]- [Example 53] | 100 to 1000 |
| Pyrimido[2,1-c][1,4]oxazine-2- carboxamide, 4,6,7,9-tetrahydro-3- hydroxy-9,9-dimethyl-N-[2-(5- methyl-1H-indol-3-yl)ethyl]-4-oxo- [Example 58] | 100 to 1000 |
| Pyrimido[2,1-c][1,4]oxazine-2- carboxamide, 4,6,7,9-tetrahydro-3- hydroxy-9,9-dimethyl-N-[(1- methyl-1H-pyrrol-2-yl)methyl]-4- oxo [Example 47] | 100 to 1000 |
| Pyrimido[2,1-c][1,4]oxazine-2- carboxamide, 4,6,7,9-tetrahydro-3- hydroxy-9,9-dimethyl-N-[(4- methyl-2-phenyl-5- thiazolyl)methyl]-4-oxo- [Example 74] | ≥ 1000 |
| Pyrimido[2,1-c][1,4]oxazine-2- carboxamide, 4,6,7,9-tetrahydro-3- hydroxy-9,9-dimethyl-N-[(5- methyl-2-phenyl-2H-1,2,3-triazol- 4-yl)methy]-4-oxo- [Example 49] | ≥ 1000 |
| Pyrimido[2,1-c][1,4]oxazine-2- carboxamide, 4,6,7,9-tetrahydro-3- hydroxy-9,9-dimethyl-N-[(5- methyl-3-phenyl-4- isoxazolyl)methy]-4-oxo- [Example 43] | ≥ 1000 |
| Pyrimido[2,1-c][1,4]oxazine-2- carboxamide, 4,6,7,9-tetrahydro-3- hydroxy-N-[2-(1H-indol-3- yl)ethyl]-9,9-dimethyl-4-oxo- [Example 57] | 100 to 1000 |
| Pyrimido[2,1-c][1,4]oxazine-2- carboxamide, 4,6,7,9-tetrahydro-3- hydroxy-N-[2-(5-hydroxy-1H- indol-3-yl)ethyl]-9,9-dimethyl-4- oxo- [Example 51] | ≥ 1000 |
| Pyrimido[2,1-c][1,4]oxazine-2- carboxamide, 4,6,7,9-tetrahydro-3- hydroxy-N-[3-(5-methoxy-1H- indol-3-yl)propyl]-9,9-dimethyl-4- oxo- [Example 52] | ≥ 1000 |
| Pyrimido[2,1-c][1,4]oxazine-2- carboxamide, 4,6,7,9-tetrahydro-3- hydroxy-N-[[3-(4-methoxyphenyl)- 5-isoxazolyl]methyl]-9,9-dimethyl- 4-oxo- [Example 48] | ≥ 1000 |
| Pyrimido[2,1-c][1,4]oxazine-2- carboxamide, N-[(1,3-dimethyl- 1H-pyrazol-4-yl)methyl]-4,6,7,9- tetrahydro-3-hydroxy-9,9- dimethyl-4-oxo- [Example 61] | 100 to 1000 |
| Pyrimido[2,1-c][1,4]oxazine-2- carboxamide, N-[(1,3-diphenyl- 1H-pyrazol-4-yl)methyl]-4,6,7,9- tetrahydro-3-hydroxy-9,9- dimethyl-4-oxo- [Example 66] | 100 to 1000 |
| Pyrimido[2,1-c][1,4]oxazine-2- carboxamide, N-[(1-ethyl-1H- pyrazol-5-yl)methyl]-4,6,7,9- tetrahydro-3-hydroxy-9,9- dimethyl-4-oxo- [Example 68] | ≥ 1000 |
| Pyrimido[2,1-c][1,4]oxazine-2- carboxamide, N-[(1-ethyl-3- methyl-1H-pyrazol-4-yl)methyl]- 4,6,7,9-tetrahydro-3-hydroxy-9,9- dimethyl-4-oxo- [Example 63] | 100 to 1000 |
| Pyrimido[2,1-c][1,4]oxazine-2- carboxamide, N-[(1-ethyl-3- methyl-1H-pyrazol-5-yl)methyl]- 4,6,7,9-tetrahydro-3-hydroxy-9,9- dimethyl-4-oxo- [Example 46] | 100 to 1000 |
